The values below come from US5792444A, “Labeled chemotactic peptides to image focal sites of infection or inflammation” (The General Hospital Corporation, priority 1993, dated 1998).

In data set [1] the target is T1, neutrophils (Homo sapiens, UniProt P21462).
T1 sequence (P21462 1-350): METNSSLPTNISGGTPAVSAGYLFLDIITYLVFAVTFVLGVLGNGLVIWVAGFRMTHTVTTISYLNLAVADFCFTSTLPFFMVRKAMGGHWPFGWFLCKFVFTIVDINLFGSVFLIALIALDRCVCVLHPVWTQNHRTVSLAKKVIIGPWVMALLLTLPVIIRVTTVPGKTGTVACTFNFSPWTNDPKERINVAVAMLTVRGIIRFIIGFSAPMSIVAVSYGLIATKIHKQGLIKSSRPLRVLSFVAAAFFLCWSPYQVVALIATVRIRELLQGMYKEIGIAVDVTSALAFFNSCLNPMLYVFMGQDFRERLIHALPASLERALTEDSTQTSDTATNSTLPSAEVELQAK
The experiment in a line: MPO (myeloperoxidase assay) release. The following applies: pH5. Type of data set: cell-based. The protocol: (§1) The procedure of Example 5 was repeated for additional CP's within the scope of the present invention. The results are shown in Table I. In the table, MPO is myeloperoxidase assay, a "-" sign means there was no effect at 30 μM, a "+" sign means there was a positive effect at 30 μM, and "N.T." means "Not

In data set [2] the target is T1, neutrophils. The experiment in a line: Binding (Table I, Cell Biology Data). An excerpt:
Three non-DTPA derivatized peptides were included in the assay for comparison.

Data set [3] has as its system neutrophils / human umbilical vein endothelial cells. The experiment in a line: cells. Type of data set: cell-based. The following applies: read-out: Adhesion Antagonist IC50. The procedure:
(§2) The unconjugated peptide iBoc-MLFK was evaluated in a neutrophil-endothelial cell adhesion assay. In this assay, neutrophils (5×10^5) labeled with 5-carboxyfluorescein diacetate were added into wells of a 48 well dish containing confluent human umbilical vein endothelial cells. The iBoc-MLFK peptide was added at a concentration of 10 μM 10 min prior to stimulation of neutrophils with 30 nM ForMLF. Percent adhesion was determined by washing off unattached neutrophils after an incubation period of 25 minutes. This peptide inhibited adhesion by 66% at this concentration. Subsequently, concentrations between 0.1-3.0 μM were examined. […] Inhibition of adhesion would reduce the infiltration of leukocytes, such as neutrophils, to a diseased site, thereby limiting the tissue damage associated with inflammation.
as §1

For data set [4], the target named is T1, neutrophils. The experiment in a line: Free radicals agonist (neutrophil free radical chemiluminescence). It is filed as cell-based. Conditions: class symbol.
Data set [5] concerns neutrophils / human umbilical vein endothelial cells. As to the kind of experiment: Adhesion agonist (neutrophil-endothelial cell adhesion assay). It is filed as cell-based. Conditions: class symbol; read-out: Adhesion Agonist EC50. The procedure: as §2, §1
The target of data set [6] is T1, neutrophils. As to the kind of experiment: Free radicals antagonist (inhibition of ForMLF stimulated free radical chemiluminescence). Type of data set: cell-based.
The subject of the next data set is human neutrophils. The experiment in a line: Assay of superoxide production (ferricytochrome C reduction). Type of data set: cell-based. The following applies: 0.1 μM. The protocol: (§3) The chemical purity of the final product was evaluated by TLC, HPLC, UV spectroscopy, mass spectroscopy, and amino acid analysis. Determinations of the EC50 's for binding to the chemoattractant receptor on human PMN's and superoxide generation were performed as described in Pike, M. C., and Snyderman, R., Methods Enzymol. 162:236-245 (1988); Pike, M. C., et al., Blood 67:909-913 (1986); and Fischman, A. J., et al., J. Nucl. Med. 32:483-491 (1991).

Data set [7] has as its target T1, neutrophils. The experiment in a line: Superoxide production by human neutrophils (backbone analog). It is filed as cell-based. The procedure: (§4) In another preferred embodiment of the present invention, Y is 4-aminotetrahydropyran-4-carboxylic acid (Thp). […] The peptide that was prepared and tested was formyl-Thp-Leu-Phe-OMe.
The target of data set [8] is T1, neutrophils. The experiment in a line: Chemoattraction of human neutrophils. It is filed as cell-based. The protocol: as §4
The peptide that was prepared and tested was formyl-Met-Dpg-Phe--OH

The next data set concerns E. coli infection. Also noted: species or system New Zealand white rabbits. Conditions: rabbit, in vivo. The procedure: In order to determine the feasibility of using radiolabeled chemotactic peptides for infection localization in animals that are sensitive to the neutropenic effects of these agents, imaging studies were performed in rabbits with focal E. coli infections. High specific activity ^99m Tc-labeled chemotactic peptide was used in these studies. Six male New Zealand white rabbits weighing 2-3 kg were anesthetized with ketamine and xylazine (15.0 and 1.5 mg/kg) and injected in the left posterior thigh muscle with a 1.0 mL suspension of approximately 2×10^9 E. coli. […] Images were recorded for a preset time of 5 minutes/view with a 15% window centered to include the 140 KeV photopeak of ^99m Tc. […]
After acquiring the final images, the animals were sacrificed by pentobarbital overdose and samples of blood, heart, lung, liver, spleen, kidney, stomach, intestine, testes, bone, marrow, normal skeletal muscle, infected skeletal muscle, and pus were weighed and radioactivity was measured as described above. To correct for radioactive decay, aliquots of the injected doses were counted simultaneously. The results were expressed as percent injected dose per gram. […] The cells were washed with 0.9% NaCl and the residual radioactivity in the cells and supernatant measured. […]

The test system of another data set is sterile inflammation. Also noted: species or system Rhesus monkeys. Conditions: rhesus monkey, in vivo. The procedure: Two adult female Rhesus monkeys weighing approximately 10 kg were used in the imaging experiments. Since these animals had been used previously in imaging experiments with other radiopharmaceuticals, they had received numerous intramuscular injections in the right posterior thigh during the induction of anesthesia.
Under light ketamine anesthesia (5.5 mg/kg), the animals were injected intravenously through a leg vein with approximately 0.5 mCi ^99m -Tc-labeled peptide (<2.0 ng/kg). At 5 min, 30 min, 1 hr, and 19 hrs following injection of radiolabeled peptide, the animals were anesthetized with ketamine/xylazine (15.0 and 1.5 mg/kg) and whole body scintigrams were acquired using a large field of view gamma camera equipped with a parallel hole high resolution low energy collimator interfaced to a dedicated computer system (Technicare Gemini 700, Technicare 560, Solon, Ohio). […] At 5 minutes prior to injection and 1, 3, 5, and 15 minutes after injection 0.5 mL samples of blood were collected and the CBC was measured.
Regions of interest were drawn over: the whole animal, cardiac blood pool, lung, liver, spleen, kidney, intestine, bone, normal muscle, and inflamed muscle; and count densities (CPM/pixel) were calculated. The results were expressed as tissue-to-blood pool, % injected dose/gram (%ID/g) and target to background ratios (inflamed thigh/contralateral thigh).

The test system of another data set is rabbit neutrophils. The experiment in a line: Lysozyme release in rabbit neutrophils. Type of data set: cell-based. The procedure: The peptide that was prepared and tested was formyl-Met-Acc^6 -Phe--OH.
Data set [9] is described as follows: Example 1: biological activity (EC50) of peptide and DTPA derivative. An excerpt: The chemotactic peptide N-formyl-Nle-Leu-Phe-Nle-Tyr-Lys was synthesized using standard solid phase methods well-known in the art (Merrifield, R. B., J. Am. Chem. Soc. […]:2149-2154 (1963); Stewart, J. M., and Young, J. D., Solid Phase Peptide Synthesis, W. H. Freeman & Company, San Francisco, Calif. (1969)). The epsilon amino group of the C-terminal lysine was modified with DTPA using a cyclic anhydride. […] The peptide was readily radiolabeled with ^111 In.

Data set [10] addresses T2, chemoattractant receptor on human PMN's (Homo sapiens, UniProt P21462).
T2 construct: endogenous in cells; host or cells: isolated human PMN's (neutrophils) from healthy volunteers, intact cells
T2 sequence (P21462 1-350): T1 sequence (P21462 1-350)
The experiment in a line: For-MLF receptor binding assay (For-ML[3H]F displacement). The following applies: 15 nM For-ML[3H]F, 45 min, 24° C. The procedure:
Following incubation, the cells were filtered onto glass fiber discs (Whatman GF/C; Whatman, Inc., Clifton, N.J.) which were then washed with 20 mL of ice cold incubation buffer. The filters were placed in scintillation vials with 10 mL of Safety-Solve (Research Products International Corp., Mt. Prospect, Ill.) and radioactivity was measured by liquid scintillation spectroscopy. Specific binding is defined as total binding minus nonspecific binding. Nonspecific binding is the amount of residual bound radioactivity in the presence of 10 μM unlabeled For-MLF.
as §3

Where a SMILES comes first, the peptide text is derived from it. [ ]: non-standard residue; d: D form. The star is where a group is joined. HYNIC = NNc1ccc(C(=O)*)cn1; Ac6c = NC1(C(=O)O)CCCCC1; Nle = CCCC[C@H](N)C(=O)O; For = O=C*

What is called EC50 is the concentration giving half of the maximal effect. Broadly, the IC50 is the concentration that inhibits the measured activity by half. Consider iBoc--MLF--O--SPNH [Example 38], for which the half-maximal effective concentration (EC50) at neutrophils [1] was 400 nM; at neutrophils [2] it was 150 to 5000 nM; at neutrophils [4], more than 30000 nM; in data set [5], less than 30000 nM. The concentration for half-maximal inhibition (IC50) in [3] was more than 30000 nM; at neutrophils [6], 5000 to 6000 nM.
Take `CCCCCCCCCCCCCC(=O)O[C@@H]1[C@@H](C)[C@@]2(O)[C@@H](C=C(CO)C[C@]3(O)C(=O)C(C)=C[C@@H]23)[C@@H]2C(C)(C)[C@]12OC(C)=O` [PMA, phorbol myristate acetate]: the “maximal response of superoxide production” value in the data set on human neutrophils is reported as 22.9 nmol 02^- produced/10^6 cells/10 min.
Take formyl-Thp-Leu-Phe-OMe: the “stimulation of superoxide production” value on neutrophils [7] is listed as “did not stimulate superoxide production”. In addition, the chemoattractant activity entry at neutrophils [8] is “chemoattractant agent to human neutrophils”.
On to `CSCC[C@H](NC=O)C(=O)N[C@@H](CC(C)C)C(=O)N[C@@H](Cc1ccccc1)C(=O)N[C@H](CCCCNC(=O)c1ccc(NN)nc1)C(N)=O` [Example 99mTc-HP4, metal not drawn] (For-MLF[dK](HYNIC)-NH2), for which, in the data set on E. coli infection, the “percent residual circulating radioactivity that was cell associated” value is “approximately 25%” and the “radioactivity of pus associated with WBC's” value was “approximately 90%”.
For the compound `CSCC[C@H](NC=O)C(=O)N[C@@H](CC(C)C)C(=O)N[C@@H](Cc1ccccc1)C(=O)NCCCCCCNC(=O)c1ccc(NN)nc1` [HP3, For-MLFNH(CH2)6 NH-HYNIC], the “effects on WBC level” value with sterile inflammation is “no significant effects”.
On to `CSCC[C@H](NC=O)C(=O)NC1(C(=O)N[C@@H](Cc2ccccc2)C(=O)O)CCCCC1` [formyl-Met-Acc^6 -Phe--OH] (For-Met-[Ac6c]-Phe-OH), for which the lysozyme release result in the data set with rabbit neutrophils is on record as “potent inducer of lysozyme release”.
Consider `CCCC[C@H](NC=O)C(=O)N[C@@H](CC(C)C)C(=O)N[C@@H](Cc1ccccc1)C(=O)N[C@@H](CCCC)C(=O)N[C@@H](Cc1ccc(O)cc1)C(=O)N[C@@H](CCCCN)C(=O)O` [For-NleLFNleYK, N-formyl-norleucyl-leucyl-phenylalanyl-norleucyl-tyrosyl-lysine] (For-[Nle]LF[Nle]YK-OH), for which the EC50 in data set [9] is approximately 1 nM; in [10], 1 nM.
